A word on the EC50: it is the midpoint of the concentration-response curve.

Test [1] addresses hemolysin alpha from Staphylococcus aureus (Staphylococcus aureus, UniProt P09616). Description: cell-based.
In test [2] the target is S. aureus Alpha hemolysin (Staphylococcus aureus, UniProt P09616). As to the kind of experiment: cell-based. The note with it: A549-LDH Assay activity.
S. aureus Alpha hemolysin, sequence (P09616 27-319 limits assumed): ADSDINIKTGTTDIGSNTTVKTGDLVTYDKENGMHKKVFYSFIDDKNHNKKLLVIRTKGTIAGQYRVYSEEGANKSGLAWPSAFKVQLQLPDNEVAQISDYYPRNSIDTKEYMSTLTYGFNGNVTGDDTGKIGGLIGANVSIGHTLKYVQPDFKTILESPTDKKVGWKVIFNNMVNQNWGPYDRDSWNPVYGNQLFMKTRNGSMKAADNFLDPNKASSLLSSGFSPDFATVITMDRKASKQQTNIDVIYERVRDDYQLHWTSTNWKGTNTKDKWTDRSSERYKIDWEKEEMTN

hemolysin alpha from Staphylococcus aureus, sequence (P09616 27-319 limits assumed): as above

As for `Cc1cc2[nH]c(=O)c(=O)[nH]c2cc1S(=O)(=O)Nc1ccc(-c2cccc(OCCN(C)C)c2)c(Cl)c1` [Compound 331, N-[3-chloro-4-[3-[2-(dimethylamino)ethoxy]phenyl]phenyl]-7-methyl-2,3-dioxo-1,4-dihydroquinoxaline-6-sulfonamide], the EC50 in test [1] and in test [2] was 100 to 1000 nM in each case.
As to `Cc1cc2[nH]c(=O)c(=O)[nH]c2cc1S(=O)(=O)Nc1ccc(-c2ccc(NC(=O)N(C)C)cc2)c(Cl)c1` [Compound 332, 3-[4-[2-chloro-4-[(7-methyl-2,3-dioxo-1,4-dihydroquinoxalin-6-yl)sulfonylamino]phenyl]phenyl]-1,1-dimethyl-urea], the EC50 in test [1] and in test [2] was 100 to 1000 nM in each case.
Regarding `Cc1cc2[nH]c(=O)c(=O)[nH]c2cc1S(=O)(=O)Nc1ccc(-c2cccc(CO)c2)c(Cl)c1` [Compound 333, N-[3-chloro-4-[3-(hydroxymethyl)phenyl]phenyl]-7-methyl-2,3-dioxo-1,4-dihydroquinoxaline-6-sulfonamide], the results for the EC50 in test [1] and in test [2] were 30 to 100 nM and 100 to 1000 nM, respectively.
As to `Cc1cc2[nH]c(=O)c(=O)[nH]c2cc1S(=O)(=O)Nc1ccc(-c2ccc3c(c2)CCNC3=O)c(Cl)c1` [Compound 334, N-[3-chloro-4-(1-oxo-3,4-dihydro-2H-isoquinolin-6-yl)phenyl]-7-methyl-2,3-dioxo-1,4-dihydroquinoxaline-6-sulfonamide], the EC50 in test [1] lay within 100 to 1000 nM; in test [2], 1000 to 6000 nM.
`Cc1cc2[nH]c(=O)c(=O)[nH]c2cc1S(=O)(=O)Nc1ccc(-c2cccc(S(=O)(=O)N(C)C)c2)c(Cl)c1` [Compound 335, N-[3-chloro-4-[3-(dimethylsulfamoyl)phenyl]phenyl]-7-methyl-2,3-dioxo-1,4-dihydroquinoxaline-6-sulfonamide]: the EC50 in test [1] lay within 100 to 1000 nM; in test [2], 1000 to 6000 nM.
For `Cc1cc2[nH]c(=O)c(=O)[nH]c2cc1S(=O)(=O)Nc1ccc(-c2ccn3ccnc3c2)c(Cl)c1` [Compound 336, N-(3-chloro-4-imidazo[1,2-a]pyridin-7-yl-phenyl)-7-methyl-2,3-dioxo-1,4-dihydroquinoxaline-6-sulfonamide] the same measures were 30 to 100 nM and 100 to 1000 nM.
Turning to `Cc1cc2[nH]c(=O)c(=O)[nH]c2cc1S(=O)(=O)Nc1ccc(-c2ccn3ncnc3c2)c(Cl)c1` [Compound 337, N-[3-chloro-4-([1,2,4]triazolo[1,5-a]pyridin-7-yl)phenyl]-7-methyl-2,3-dioxo-1,4-dihydroquinoxaline-6-sulfonamide], the EC50 in test [1] and in test [2] was 30 to 100 nM in each case.
With `Cc1cn2ccc(-c3ccc(NS(=O)(=O)c4cc5[nH]c(=O)c(=O)[nH]c5cc4C)cc3Cl)cc2n1` [Compound 338, N-[3-chloro-4-(2-methylimidazo[1,2-a]pyridin-7-yl)phenyl]-7-methyl-2,3-dioxo-1,4-dihydroquinoxaline-6-sulfonamide], the results for the concentration giving a half-maximal response (EC50) in test [1] and in test [2] were less than 30 nM and 30 to 100 nM, respectively.
For `Cc1cc2[nH]c(=O)c(=O)[nH]c2cc1S(=O)(=O)Nc1ccc(-c2cccc(OC(F)(F)F)c2)c(Cl)c1` [Compound 339, N-[3-chloro-4-[3-(trifluoromethoxy)phenyl]phenyl]-7-methyl-2,3-dioxo-1,4-dihydroquinoxaline-6-sulfonamide] the same measures were 30 to 100 nM and 100 to 1000 nM.
Take `Cc1cc2[nH]c(=O)c(=O)[nH]c2cc1S(=O)(=O)Nc1ccc(-c2cn(C)c3ccccc23)c(Cl)c1` [Compound 340, N-[3-chloro-4-(1-methylindol-3-yl)phenyl]-7-methyl-2,3-dioxo-1,4-dihydroquinoxaline-6-sulfonamide]: the EC50 in test [1] was in the range of 100 to 1000 nM; in test [2], 1000 to 6000 nM.
For `Cc1cc2[nH]c(=O)c(=O)[nH]c2cc1S(=O)(=O)Nc1ccc(-c2ccc3c(c2)CCN3C)c(Cl)c1` [Compound 341, N-[3-chloro-4-(1-methylindolin-5-yl)phenyl]-7-methyl-2,3-dioxo-1,4-dihydroquinoxaline-6-sulfonamide] the same measures were 100 to 1000 nM and 1000 to 6000 nM.
For `Cc1cc2[nH]c(=O)c(=O)[nH]c2cc1S(=O)(=O)Nc1ccc(-c2cccc(CN)c2)c(Cl)c1` [Compound 342, N-[4-[3-(aminomethyl)phenyl]-3-chloro-phenyl]-7-methyl-2,3-dioxo-1,4-dihydroquinoxaline-6-sulfonamide] the same measures were 1000 to 3500 nM and 100 to 1000 nM.
For the compound `Cc1cc2[nH]c(=O)c(=O)[nH]c2cc1S(=O)(=O)Nc1ccc(-c2ccc3c(c2)CCCN3)c(Cl)c1` [Compound 343, N-[3-chloro-4-(1,2,3,4-tetrahydroquinolin-6-yl)phenyl]-7-methyl-2,3-dioxo-1,4-dihydroquinoxaline-6-sulfonamide], the EC50 in test [1] was less than 30 nM; in test [2], 100 to 1000 nM.
As to `COCCn1cc(-c2ccc(NS(=O)(=O)c3cc4[nH]c(=O)c(=O)[nH]c4cc3C)cc2Cl)cn1` [Compound 344, N-[3-chloro-4-[1-(2-methoxyethyl)pyrazol-4-yl]phenyl]-7-methyl-2,3-dioxo-1,4-dihydroquinoxaline-6-sulfonamide], the EC50 is 1000 to 3500 nM in test [1] and 1000 to 6000 nM in test [2].
For `COc1ccc(-c2ccc(NS(=O)(=O)c3cc4[nH]c(=O)c(=O)[nH]c4cc3C)cc2C(F)(F)F)cc1F` [Compound 345, N-[4-(3-fluoro-4-methoxy-phenyl)-3-(trifluoromethyl)phenyl]-7-methyl-2,3-dioxo-1,4-dihydroquinoxaline-6-sulfonamide] the same measures were less than 30 nM and less than 30 nM.
Consider `CC(=O)Nc1cc(-c2ccc(NS(=O)(=O)c3cc4[nH]c(=O)c(=O)[nH]c4cc3C)cc2C(F)(F)F)ccc1O` [Compound 346, N-[2-hydroxy-5-[4-[(7-methyl-2,3-dioxo-1,4-dihydroquinoxalin-6-yl)sulfonylamino]-2-(trifluoromethyl)phenyl]phenyl]acetamide], for which the figures for the EC50 in test [1] and in test [2] were 30 to 100 nM and 100 to 1000 nM, respectively.
For the compound `Cc1cc2[nH]c(=O)c(=O)[nH]c2cc1S(=O)(=O)Nc1ccc(-c2ccc(C#N)cc2)c(C(F)(F)F)c1` [Compound 348, N-[4-(4-cyanophenyl)-3-(trifluoromethyl)phenyl]-7-methyl-2,3-dioxo-1,4-dihydroquinoxaline-6-sulfonamide], the half-maximal effective concentration (EC50) was less than 30 nM in test [1] and 100 to 1000 nM in test [2].
For `Cc1cc2ccc(-c3ccc(NS(=O)(=O)c4cc5[nH]c(=O)c(=O)[nH]c5cc4C)cc3Cl)cc2[nH]1` [Compound 349, N-[3-chloro-4-(2-methyl-1H-indol-6-yl)phenyl]-7-methyl-2,3-dioxo-1,4-dihydroquinoxaline-6-sulfonamide] the same measures were less than 30 nM and less than 30 nM.
On to `Cc1cc2[nH]c(=O)c(=O)[nH]c2cc1S(=O)(=O)Nc1ccc(-c2ccc3c(c2)NC(=O)C3)c(Cl)c1` [Compound 350, N-[3-chloro-4-(2-oxoindolin-6-yl)phenyl]-7-methyl-2,3-dioxo-1,4-dihydroquinoxaline-6-sulfonamide], for which the EC50 in test [1] and in test [2] was 30 to 100 nM throughout.
In the case of `Cc1cc2[nH]c(=O)c(=O)[nH]c2cc1S(=O)(=O)Nc1ccc(-c2ccc3cccnc3c2)c(Cl)c1` [Compound 351, N-[3-chloro-4-(7-quinolyl)phenyl]-7-methyl-2,3-dioxo-1,4-dihydroquinoxaline-6-sulfonamide], the concentration giving a half-maximal response (EC50) in test [1] was less than 30 nM; in test [2], 100 to 1000 nM.
Consider `Cc1cc2[nH]c(=O)c(=O)[nH]c2cc1S(=O)(=O)Nc1ccc(-c2ccc3c(C)c[nH]c3c2)c(Cl)c1` [Compound 352, N-[3-chloro-4-(3-methyl-1H-indol-6-yl)phenyl]-7-methyl-2,3-dioxo-1,4-dihydroquinoxaline-6-sulfonamide], for which the EC50 in test [1] and in test [2] was 100 to 1000 nM each time.
For the compound `Cc1cc2[nH]c(=O)c(=O)[nH]c2cc1S(=O)(=O)Nc1ccc(-c2ccc3c(c2)NCCO3)c(Cl)c1` [Compound 353, N-[3-chloro-4-(3,4-dihydro-2H-1,4-benzoxazin-6-yl)phenyl]-7-methyl-2,3-dioxo-1,4-dihydroquinoxaline-6-sulfonamide], the half-maximal effective concentration (EC50) in test [1] was 30 to 100 nM; in test [2] it was 100 to 1000 nM.
On to `Cc1cc2[nH]c(=O)c(=O)[nH]c2cc1S(=O)(=O)Nc1ccc(-c2ccc3c(c2)N(C)CCO3)c(Cl)c1` [Compound 354, N-[3-chloro-4-(4-methyl-2,3-dihydro-1,4-benzoxazin-6-yl)phenyl]-7-methyl-2,3-dioxo-1,4-dihydroquinoxaline-6-sulfonamide], for which the EC50 lay in the range of 30 to 100 nM in test [1] and 100 to 1000 nM in test [2].
Regarding `Cc1cc2[nH]c(=O)c(=O)[nH]c2cc1S(=O)(=O)Nc1ccc(-c2ccc3c(c2)NC(=O)CO3)c(Cl)c1` [Compound 355, N-[3-chloro-4-(3-oxo-4H-1,4-benzoxazin-6-yl)phenyl]-7-methyl-2,3-dioxo-1,4-dihydroquinoxaline-6-sulfonamide], the EC50 in test [1] and in test [2] was less than 30 nM in each case.
Regarding `Cc1cc2[nH]c(=O)c(=O)[nH]c2cc1S(=O)(=O)Nc1ccc(-c2ccc3c(c2)N(C)C(=O)CO3)c(Cl)c1` [Compound 356, N-[3-chloro-4-(4-methyl-3-oxo-1,4-benzoxazin-6-yl)phenyl]-7-methyl-2,3-dioxo-1,4-dihydroquinoxaline-6-sulfonamide], the EC50 in test [1] is less than 30 nM; in test [2], 30 to 100 nM.
For `Cc1cc2[nH]c(=O)c(=O)[nH]c2cc1S(=O)(=O)Nc1ccc(-c2cc(F)c3c(c2)NCCO3)c(Cl)c1` [Compound 357, N-[3-chloro-4-(8-fluoro-3,4-dihydro-2H-1,4-benzoxazin-6-yl)phenyl]-7-methyl-2,3-dioxo-1,4-dihydroquinoxaline-6-sulfonamide] the same measures were less than 30 nM and 100 to 1000 nM.
In the case of `Cc1cc2[nH]c(=O)c(=O)[nH]c2cc1S(=O)(=O)Nc1ccc(-c2ccc(=O)[nH]c2)c(Cl)c1` [Compound 358, N-[3-chloro-4-(6-oxo-1H-pyridin-3-yl)phenyl]-7-methyl-2,3-dioxo-1,4-dihydroquinoxaline-6-sulfonamide], the EC50 lay within 100 to 1000 nM in test [1] and 30 to 100 nM in test [2].
